# Source: ChEMBL document CHEMBL4177643, “Trisubstituted purine inhibitors of PDGFRα and their antileukemic activity in the human eosinophilic cell line EOL-1” (Bioorg Med Chem, 2017)
# How the values were obtained:
# K562 [1] = assay: Cytotoxicity against human K562 cells assessed as growth inhibition after 72 hrs by calcein-AM dye based fluorescence assay; type: functional; details: K562, 72 h
# K562 [2] = assay: Cell cycle arrest in human K562 cells assessed as G1/G2-M ratio at GI50 concentration after 24 hrs by propidium iodide staining-based flow cytometry relative to control; type: functional
# EOL1 [3] = assay: Cell cycle arrest in human EOL-1 cells assessed as accumulation at sub-G1 phase at 0.008 uM after 24 hrs by propidium iodide staining-based flow cytometry (reference value: 20%); type: functional
# [4] = target: Platelet-derived growth factor receptor alpha (Homo sapiens, UniProt P16234); assay: Inhibition of recombinant human N-terminal GST-His6 tagged PDGFRalpha (Q551 to L1089 residues) expressed in Sf9 insect cells using poly(Ala,Glu,Lys,Tyr)6:2:5:1 hydrobromide as substrate in presence of [gamma-33P]ATP
# EOL1 [5] = assay: Cell cycle arrest in human EOL-1 cells assessed as accumulation at sub-G1 phase at 0.2 uM after 24 hrs by propidium iodide staining-based flow cytometry (reference value: 20%); type: functional
# EOL1 [6] = assay: Cell cycle arrest in human EOL-1 cells assessed as accumulation at G1 phase at 1 uM after 24 hrs by propidium iodide staining-based flow cytometry (reference value: 60.9%); type: functional
# EOL1 [7] = assay: Cell cycle arrest in human EOL-1 cells assessed as accumulation at sub-G1 phase at 0.04 uM after 24 hrs by propidium iodide staining-based flow cytometry (reference value: 20%); type: functional
# EOL1 [8] = assay: Cell cycle arrest in human EOL-1 cells assessed as accumulation at S phase at 1 uM after 24 hrs by propidium iodide staining-based flow cytometry (reference value: 20.7%); type: functional
# EOL1 [9] = assay: Cytotoxicity against human EOL-1 cells assessed as growth inhibition after 72 hrs by calcein-AM dye based fluorescence assay; type: functional; details: EOL1, 72 h
# HCC827 [10] = assay: Cytotoxicity against human HCC827 cells assessed as growth inhibition after 72 hrs by calcein-AM dye based fluorescence assay; type: functional; details: HCC827, 72 h
# EOL1 [11] = assay: Cell cycle arrest in human EOL-1 cells assessed as G1/G2-M ratio at GI50 concentration after 24 hrs by propidium iodide staining-based flow cytometry relative to control; type: functional
# EOL1 [12] = assay: Cell cycle arrest in human EOL-1 cells assessed as accumulation at G1 phase at 0.2 uM after 24 hrs by propidium iodide staining-based flow cytometry (reference value: 60.9%); type: functional
# EOL1 [13] = assay: Cell cycle arrest in human EOL-1 cells assessed as accumulation at S phase at 0.008 uM after 24 hrs by propidium iodide staining-based flow cytometry (reference value: 20.7%); type: functional
# BT-474 = assay: Cytotoxicity against human BT474 cells assessed as growth inhibition after 72 hrs by calcein-AM dye based fluorescence assay; type: functional; details: BT-474, 72 h
# EOL1 [14] = assay: Cell cycle arrest in human EOL-1 cells assessed as accumulation at sub-G1 phase at 1 uM after 24 hrs by propidium iodide staining-based flow cytometry (reference value: 20%); type: functional
# EOL1 [15] = assay: Cell cycle arrest in human EOL-1 cells assessed as accumulation at G1 phase at 0.04 uM after 24 hrs by propidium iodide staining-based flow cytometry (reference value: 60.9%); type: functional
# EOL1 [16] = assay: Cell cycle arrest in human EOL-1 cells assessed as accumulation at S phase at 0.2 uM after 24 hrs by propidium iodide staining-based flow cytometry (reference value: 20.7%); type: functional
# EOL1 [17] = assay: Cell cycle arrest in human EOL-1 cells assessed as accumulation at S phase at 0.04 uM after 24 hrs by propidium iodide staining-based flow cytometry (reference value: 20.7%); type: functional
# MCF7 = assay: Cytotoxicity against human MCF7 cells assessed as growth inhibition after 72 hrs by calcein-AM dye based fluorescence assay; type: functional; details: MCF7, 72 h
# EOL1 [18] = assay: Cell cycle arrest in human EOL-1 cells assessed as accumulation at G2/M phase at 0.2 uM after 24 hrs by propidium iodide staining-based flow cytometry (reference value: 18.4%); type: functional
# EOL1 [19] = assay: Cell cycle arrest in human EOL-1 cells assessed as accumulation at G2/M phase at 1 uM after 24 hrs by propidium iodide staining-based flow cytometry (reference value: 18.4%); type: functional
# EOL1 [20] = assay: Cell cycle arrest in human EOL-1 cells assessed as accumulation at G2/M phase at 0.008 uM after 24 hrs by propidium iodide staining-based flow cytometry (reference value: 18.4%); type: functional
# EOL1 [21] = assay: Cell cycle arrest in human EOL-1 cells assessed as accumulation at G1 phase at 0.008 uM after 24 hrs by propidium iodide staining-based flow cytometry (reference value: 60.9%); type: functional
# HCC827 [22] = assay: Cell cycle arrest in human HCC827 cells assessed as G1/G2-M ratio at GI50 concentration after 24 hrs by propidium iodide staining-based flow cytometry relative to control; type: functional
# [23] = target: Cyclin-dependent kinase 2/cyclin E1 (Homo sapiens, UniProt P24941); assay: Inhibition of CDK2/cyclin E (unknown origin) expressed in baculovirus infected insect Sf9 cells using histone H1 as substrate in presence of [gamma-33P]ATP
# EOL1 [24] = assay: Cell cycle arrest in human EOL-1 cells assessed as accumulation at G2/M phase at 0.04 uM after 24 hrs by propidium iodide staining-based flow cytometry (reference value: 18.4%); type: functional
# Chain of Platelet-derived growth factor receptor alpha (P16234 whole entry, the tested form may be a part): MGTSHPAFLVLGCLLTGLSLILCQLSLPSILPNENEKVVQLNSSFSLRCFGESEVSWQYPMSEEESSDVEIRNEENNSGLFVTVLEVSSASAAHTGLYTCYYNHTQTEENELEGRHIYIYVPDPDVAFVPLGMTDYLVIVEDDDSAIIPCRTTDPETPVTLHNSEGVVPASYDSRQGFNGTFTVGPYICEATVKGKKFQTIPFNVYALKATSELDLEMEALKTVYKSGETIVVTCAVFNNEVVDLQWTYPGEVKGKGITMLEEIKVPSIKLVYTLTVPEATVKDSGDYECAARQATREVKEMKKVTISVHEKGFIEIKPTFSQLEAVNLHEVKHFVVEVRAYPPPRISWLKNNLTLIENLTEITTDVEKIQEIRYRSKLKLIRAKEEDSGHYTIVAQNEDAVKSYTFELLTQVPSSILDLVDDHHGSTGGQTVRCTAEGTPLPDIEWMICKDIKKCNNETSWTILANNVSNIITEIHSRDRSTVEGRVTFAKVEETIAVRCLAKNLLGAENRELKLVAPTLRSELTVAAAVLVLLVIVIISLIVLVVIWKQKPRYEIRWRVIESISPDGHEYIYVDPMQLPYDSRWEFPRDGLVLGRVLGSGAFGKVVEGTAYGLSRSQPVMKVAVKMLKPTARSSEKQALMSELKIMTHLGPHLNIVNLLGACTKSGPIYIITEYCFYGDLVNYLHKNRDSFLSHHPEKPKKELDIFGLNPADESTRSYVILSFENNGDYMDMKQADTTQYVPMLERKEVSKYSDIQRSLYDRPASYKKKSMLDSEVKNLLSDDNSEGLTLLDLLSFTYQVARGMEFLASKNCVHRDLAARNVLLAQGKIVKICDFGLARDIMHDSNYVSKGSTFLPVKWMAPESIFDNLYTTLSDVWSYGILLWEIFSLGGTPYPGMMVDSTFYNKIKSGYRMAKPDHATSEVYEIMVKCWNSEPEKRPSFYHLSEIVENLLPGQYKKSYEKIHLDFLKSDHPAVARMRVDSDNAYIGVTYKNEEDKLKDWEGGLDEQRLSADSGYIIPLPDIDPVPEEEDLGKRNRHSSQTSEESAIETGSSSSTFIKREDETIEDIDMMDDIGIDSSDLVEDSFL
compound,measurement,setting,value
CC(C)CCn1cnc2c(Nc3cccc(Cl)c3)nc(N[C@H]3CC[C@H](N)CC3)nc21,GI50,K562 [1],1.5 µM
same,Ratio,K562 [2],1.1
same,Activity,EOL1 [3],27.9%
same,IC50,[4],0.066 µM
same,Activity,EOL1 [5],49.8%
same,Activity,EOL1 [6],79.9%
same,Activity,EOL1 [7],36.5%
same,Activity,EOL1 [8],14.5%
same,GI50,EOL1 [9],0.06 µM
same,GI50,HCC827 [10],10.3 µM
same,Ratio,EOL1 [11],6
same,Activity,EOL1 [12],86.3%
same,Activity,EOL1 [13],12.5%
same,GI50,BT-474,3.8 µM
same,Activity,EOL1 [14],46.3%
same,Activity,EOL1 [15],86.1%
same,Activity,EOL1 [16],10.6%
same,Activity,EOL1 [17],7.7%
same,GI50,MCF7,2.1 µM
same,Activity,EOL1 [18],3.1%
same,Activity,EOL1 [19],5.6%
same,Activity,EOL1 [20],10.4%
same,Activity,EOL1 [21],77.1%
same,Ratio,HCC827 [22],1.33
same,IC50,[23],0.275 µM
same,Activity,EOL1 [24],6.2%
